The values below come from patent US7144867B2, “Anticancer glycoside compounds” (priority 2004, dated 2006).

In one data set the test system is Bax. In words: Western blotting, Bax in AsPC-1 cells. It is filed as cell-based, human. The conditions noted are these: 4 μg/mL (FIG. 4). The protocol: (§1) Western blotting. Cells were seeded into flasks and cultured to 50% to 60% confluence for 24 hours. Cells were then placed in serum-free medium with or without 4 μg/mL frondoside A for periods of 0, 24, 48 and 72 hours respectively. Proteins were extracted from attached and floating cells in lysis buffer containing 4% SDS. Protein concentrations were determined using the bicinchoninic acid assay with BSA as standard. Western blotting was carried out. In brief, equal amounts of protein in the cell lysates were separated on 15% SDS-PAGE and the proteins were transferred onto nitrocellulose membranes. After blocking non-specific sites with dried milk, membranes were incubated with the appropriate dilution of primary antibody. Membranes were then incubated with a horseradish peroxidase conjugated secondary antibody. Proteins were detected using an enhanced chemiluminescence detection system.

A further data set deals with p27. Kind of data set: Western blotting, p27 in AsPC-1 cells. It is filed as cell-based, human. The conditions noted are these: 4 μg/mL (FIG. 5). The protocol:
as §1

The next data set relates to Mcl-1. Kind of data set: Western blotting, Mcl-1 in AsPC-1 cells. Particulars: 4 μg/mL, time-dependent (FIG. 4). Type of data set: cell-based, human. The procedure:
as §1

The subject of data set [1] is AsPC-1 cells. In words: TUNEL assay. Type of data set: cell-based, human. Particulars: 4 μg/mL, 72 hours; control 2.4%, P<0.001. The procedure:
Terminal deoxynucleotidyl transferase-mediated deoxyuridine triphosphate nick-end labeling (TUNEL) assay. The assay was carried out for terminal incorporation of fluorescein 12-dUTP by terminal deoxynucleotidyl transferase into fragmented DNA in cancer cells (TUNEL assay kits, Promega, Madison, Wis.). Cells were cultured to 50%–60% confluence in T75 flasks in serum-free conditions for 24 hours and then treated with or without 4 μg/mL Frondoside A for 72 hours. Cells were then trypsinized and fixed in 1% methanol-free formaldehyde-PBS for 15 minutes. At the end of treatment, cells were harvested with trypsin-EDTA solution to produce a single cell suspension. Cells were then pelleted by centrifugation and washed twice with PBS. Cell pellets were suspended in 0.5 ml PBS and fixed in ice-cold 70% ethanol at 4° C. Fixed cells were centrifuged at 300×g for 10 minutes and pellets were washed with PBS. After resuspension with 1 ml PBS, cells were incubated with 10 μL of RNase I (10 mg/mL) and 100 μL of propidium iodide (400 μg/mL; Sigma) and shaken for 1 hour at 37° C. in the dark. Samples were analyzed by flow cytometry. Laser flow cytometry was used to quantify the green fluorescence of fluorescein-12-dUTP incorporated against the red fluorescence of propidium iodide.

Data set [2] deals with PC-3 (human prostate adenocarcinoma). In words: cells. The conditions noted are these: for Percent Growth (Mean ± SEM, n = 2): 72-hour. The procedure:
Test Substance and Concentration. Frondoside A (FAS) was dissolved in 100% DMSO and then diluted with sterile distilled water to obtain initial working solutions of 1000, 300, 100, 30, and 10 μM in 40% DMSO. […]
Cell Line and Culture Media. The tumor cell line PC-3 (human prostate adenocarcinoma), obtained from American Type Culture Collection (ATCC CRL-1435), was incubated in air atmosphere of 5% CO2 at 37° C. The culture medium used was F-12K Nutrient Mixture (Kaighn's Modification) with 3% fetal bovine serum, which was supplemented with 1% Antibiotic-Antimycotic.
Evaluation of anti-proliferation for test substances. Aliquots of 100 μl of cell suspension (about 2.5×10^3 cells/well) were placed in 96-well microtiter plates in an atmosphere of 5% CO2 at 37° C. […] Thus, the final concentration of DMSO was 0.4%. The Frondoside A was evaluated for possible inhibitory effects on cell proliferation at concentrations of 10, 3, 1, 0.3 and 0.1 μM. At the end of incubation, 20 μl of 90% alamarBlue reagent was added to each well for another 6-hour incubation before detection of cell viability by fluorescent intensity. Fluorescent intensity was measured using a Spectrafluor Plus plate reader with excitation at 530 nm and emission at 590 nm.
Determination of IC50, TGI and LC50. The measured results was calculated by the following formula: PG(%)=100%×(Mean Ftest−Mean Ftime0)/(Mean Fctrl−Mean Ftime0) If (Mean Ftest−Mean Ftime0)<0, then PG (%)=100%×(Mean Ftest−Mean Ftime0)/(Mean Ftime0−Mean Fblank) Where: • PG: percent growth • Mean Ftime0=The average of 2 measured fluorescent intensities of reduced alamarBlue at the time just before exposure of cells to the test substance. • Mean Ftest=The average of 2 measured fluorescent intensities of alamarBlue after 72-hour exposure of cells to the test substance. • Mean Fctrl=The average of 2 measured fluorescent intensities of alamarBlue after 72-hour incubation without the test substance. • Mean Fblank=The average of 2 measured fluorescent intensities of alamarBlue in medium without cells after 72-hour incubation.

Data set [3] relates to AsPC-1 cells. Kind of data set: Cell proliferation by cell counting. Type of data set: cell-based, human. The conditions noted are these: 4 μg/mL. The procedure:
Cell culture. The poorly differentiated human pancreatic cancer line AsPC-1 was purchased from the American Type Culture Collection (ATCC, Manassas, Va., USA). Cells were cultured in MEM medium supplemented with penicillin G (100 U/mL), streptomycin (100 U/mL) and 10% FBS at 37° C. in humidified air with 5% CO2. Cells were harvested by incubation in trypsin-EDTA solution for 10–15 minutes. Cells were then centrifuged at 300×g for 5 minutes and cell pellets were suspended in fresh culture medium prior to seeding into culture flasks or plates.
Cell proliferation assay. Cell growth was analyzed by ^3H-methyl thymidine incorporation and cell counting. Following treatment of pancreatic cancer cells with a series of concentrations of frondoside A from 1 μg/mL to 16 μg/mL, cellular DNA synthesis was assayed by adding ^3H-methyl thymidine at 0.5 μLCi/well. After 2 hours incubation, the cells were washed twice with PBS, precipitated with 10% TCA for two hours, and solubilized from each well with 0.5 ml of 0.4 N NaOH. Incorporation of ^3H-methyl thymidine into DNA was measured by adding scintillation liquid and counting in a scintillation counter (LKB BackBeta, Wallac, Turku, Finland). […] The cells were counted using Z1-Coulter Counter (Luton, UK).

Data set [4] relates to AsPC-1 cells. Kind of data set: Morphological studies (apoptosis). Type of data set: cell-based, human. Particulars: 4 μg/mL, within 24 hours. The procedure: Morphological studies. The photomicrographs of cell morphological changes were taken with a Kodak DC 120 digital zoom camera under an inverted microscope (400×) following treatment with or without 4 μg/mL frondoside A for different time periods from 24 to 72 hours.

As for `COC1C(O)C(CO)OC(OC2C(O)COC(OC3C(C)OC(OC4C(OC5CCC6(C)C7CCC89C(=O)OC(C)(CCCC(C)C)C8C(OC(C)=O)CC9(C)C7=CCC6C5(C)C)OCC(OS(=O)(=O)[O-])C4O)C(OC4OCC(O)C(O)C4O)C3O)C2O)C1O.[Na+]` [Frondoside A, 3-O-methyl-β-D-glucopyranosyl-(1→3)-β-D-xylopyranosyl-(1→4)-[β-D-xylopyranosyl-(1→2)]-β-D-quinovopyranosyl-(1→2)-4-O-sodium sulfate-β-D-xylopyranosyl-3-O-holost-7(8)-en-3β-ol-16β-O-acetate], the “concentrations of the pro-apoptotic protein Bax” value in the data set with Bax was “increased”. For the same compound, in the data set on p27, the “expression of p27” value is “not changed”. Moreover, in the data set with Mcl-1, the “expression of Mcl-1” value was “decreased expression”. Also, the TUNEL staining with AsPC-1 cells [1] was 36.1%. Besides, the “Percent Growth (Mean ± SEM, n = 2)” value is recorded as 98 ± 3% in data set [2] (PC-3, 0.1 μM); 103 ± 1% in data set [2] (PC-3, 0.3 μM); 98 ± 3% in data set [2] (PC-3, 1 μM); −98 ± 1% in data set [2] (PC-3, 3 μM); −97 ± 1% in data set [2] (PC-3, 10 μM). The “TGI (Total Growth Inhibition)” value in data set [2] (PC-3, semi-quantitative, nonlinear regression) worked out at 1700 nM. In data set [2] (between 1 and 10 μM), the “growth inhibition of PC-3 relative to the vehicle treated control group” value was “significant growth inhibition”. In addition, the IC50 in data set [2] (read-out: IC50 (50% Inhibition Concentration), PC-3, semi-quantitative, nonlinear regression) was found to be 1500 nM. In addition, the CC50 in data set [2] (read-out: LC50 (50% Lethal Concentration), PC-3, semi-quantitative, nonlinear regression) worked out at 2000 nM. Besides, the “cell number compared to control” value with AsPC-1 cells [3] (48 and 72 hours) is “marked and progressive decrease in cell number”; in the data set on AsPC-1 cells [3] (first 24 hours), “no obviously effect”. The morphological changes entry in the data set on AsPC-1 cells [4] is “marked morphological changes characteristic of apoptosis”.
